Laboratory results published in US20260053723A1, “PLAQUE DISCLOSING COMPOSITION” (AIOBIO CO, LTD., priority 2020, published 2026).

How the values were obtained:
[1] = Highest concentration at which RPS was completely dissolved; assay type: physicochemical
Description: (§1) Sterile distilled water (DW, (1)), gargle (GG, Soom Mouthwash, (2)), saliva (S (F-X), (3)) and filtered saliva (S(F-O), (4)) 100 mg/ml RPS stock formulation (plates were prepared after preparation by diluting at concentrations of 100 mg/mL, 50 mg/mL, 25 mg/mL, 12.5 mg/mL, 6.25 mg/ml, 3.12 mg/mL, 1.5 mg/mL, 0.78 mg/mL, 0.39 mg/mL, 0.19 mg/mL, and 0.1 mg/mL.
A plaque staining agent, 2-tone (2T), used in clinical practice was diluted to a concentration of 10% and set as a control group. As an experimental group, two concentrations, 50 mg/mL (the highest concentration at which RPS was completely dissolved) and 0.4 mg/mL (the strongest fluorescence intensity), were selected based on the results of Experimental Example 1 above.

[2] = Evaluation of fluorescence intensity of RPS (Qraycam Pro images, fluorescence spectrometer); assay type: physicochemical
Description: as §1
Each plate prepared was photographed with the Qraycam Pro (AIOBIO, Seoul, Korea) to obtain white light and blue light images. Then, fluorescence intensity was measured using a fluorescence spectrometer (Varioskan, excitation=405 nm/emission=520 nm).

Cc1cc2nc3c(=O)[nH]c(=O)nc-3n(C[C@H](O)[C@H](O)[C@H](O)COP(=O)([O-])O)c2cc1C.[Na+] [RPS, riboflavin 5-phosphate sodium]
highest concentration at which RPS was completely dissolved [1]: 50 mg/mL | trend of fluorescence intensity with concentration ([2]; fluorescence spectrometer, excitation=405 nm/emission=520 nm): increased from 0.01 mg/mL to 0.39 mg/mL, and then decreased again | concentration of the maximum fluorescence intensity ([2]; fluorescence spectrometer, excitation=405 nm/emission=520 nm, all solvents (DW, gargle, saliva, filtered saliva)): 400 µg/mL | fluorescence colour, visual evaluation of images ([2]; shift from high concentration (100 mg/mL) to low concentration): red fluorescence was converted to green fluorescence | difference in fluorescence between solvents, visual evaluation ([2]; white light and blue light images, DW, gargle, saliva, filtered saliva): no difference in fluorescence was observed between solvents
